Test results from paper PMC11214487, “YZL-51N functions as a selective inhibitor of SIRT7 by NAD^+ competition to impede DNA damage repair” (iScience, 2024).
Where two headings read alike, the source gives them in different places.

Legend:
SIRT7 [1] = target: T1, SIRT7 (Homo sapiens, UniProt Q9NRC8); experiment: Fluor de Lys (FDL) SIRT7 deacetylase assay; format: biochemical
T1 construct: His-tagged full length SIRT7 protein expression from BL21 bacterial cells; His; made in house; host or cells: E. coli BL21
T1 sequence (Q9NRC8 1-400): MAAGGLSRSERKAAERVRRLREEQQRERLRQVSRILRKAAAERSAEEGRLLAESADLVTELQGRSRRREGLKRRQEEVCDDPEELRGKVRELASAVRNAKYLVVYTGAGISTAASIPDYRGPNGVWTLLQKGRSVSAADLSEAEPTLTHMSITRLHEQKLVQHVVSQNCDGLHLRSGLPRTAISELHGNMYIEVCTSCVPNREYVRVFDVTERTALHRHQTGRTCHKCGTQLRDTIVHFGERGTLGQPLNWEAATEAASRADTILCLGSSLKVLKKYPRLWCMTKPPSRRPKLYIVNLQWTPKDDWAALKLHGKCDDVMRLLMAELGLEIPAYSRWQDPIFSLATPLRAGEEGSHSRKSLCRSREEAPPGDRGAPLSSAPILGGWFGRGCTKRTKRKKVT
Description: To assess SIRT7 deacetylase activity using Fluor de Lys (FDL) assays, the peptide […]∗QLAGGK was synthesized and characterized as a substrate using fluorophore 7-methoxycoumarin-4-acetic acid (∗, MCA) (Figures 1A, S1A, and S1B). In the presence of both SIRT7 and NAD^+, a luminescence response was detected in the linear range (y = 31.88x + 2396, R^2 = 0.9742) (Figure 1B). We screened our preserved library of 242 natural products to find potential SIRT7 inhibitors.
For in vitro analysis of SIRT7 deacetylation, the reaction system contained 10 μg His-SIRT7, 0.5 mM NAD^+, 10 μM […](MCA)QLAGGK (synthesized by QYAOBIO; details in the supplementary files), 50 μM potential compound or 3 mM NAM, and assay buffer (10 mM Tris-HCl pH 8.0, 4 mM MgCl2, 0.2 mM DTT and 10% Glycerol). The deacetylation reactions were incubated at 37°C for 90 min. The fluorescence intensity was measured with a microplate reader (Synergy H4 Hybrid Reader, Biotek) at an excitation wavelength of 260 nm and detected at an emission spectrum of 300–600 nm. The IC50 values were calculated at 450 nm emission by GraphPad Prism 8.

SIRT7 [2] = target: T1, SIRT7; experiment: Bio-layer interferometry (BLI) binding assay; details: 0-40 μM, PBST pH 7.4
Method: The binding affinity of SIRT1/2/6/7 with YZL-51N was determined using Super Streptavidin (SSA) biosensors in an Octet Red 96 instrument (ForteBio Inc., Menlo Park, CA, United States). Briefly, the biotinylated SIRT1/2/6/7 proteins were immobilized onto the surface of SSA biosensors. Increasing concentrations of YZL-51N were allowed to flow through the chips at room temperature in PBST buffer (pH 7.4). Assays were performed in black 96-well flat bottom plates on a shaker at 1000 r/min. The association and dissociation of YZL-51N with SIRT1/2/6/7 were measured for 300 s. Kinetic parameters and affinities were calculated from a non-linear global fit of the data between YZL-51N and SIRT1/2/6/7 using Octet Data Analysis software version 7.0 (Fortebio).

SIRT1 = target: T2, SIRT1 (Homo sapiens, UniProt Q96EB6); experiment: Cellular thermal shift assay in HCT116 cell lysates; format: binding; details: 20 μM
T2 construct: endogenous in cells; host or cells: HCT116
T2 sequence (Q96EB6 1-747): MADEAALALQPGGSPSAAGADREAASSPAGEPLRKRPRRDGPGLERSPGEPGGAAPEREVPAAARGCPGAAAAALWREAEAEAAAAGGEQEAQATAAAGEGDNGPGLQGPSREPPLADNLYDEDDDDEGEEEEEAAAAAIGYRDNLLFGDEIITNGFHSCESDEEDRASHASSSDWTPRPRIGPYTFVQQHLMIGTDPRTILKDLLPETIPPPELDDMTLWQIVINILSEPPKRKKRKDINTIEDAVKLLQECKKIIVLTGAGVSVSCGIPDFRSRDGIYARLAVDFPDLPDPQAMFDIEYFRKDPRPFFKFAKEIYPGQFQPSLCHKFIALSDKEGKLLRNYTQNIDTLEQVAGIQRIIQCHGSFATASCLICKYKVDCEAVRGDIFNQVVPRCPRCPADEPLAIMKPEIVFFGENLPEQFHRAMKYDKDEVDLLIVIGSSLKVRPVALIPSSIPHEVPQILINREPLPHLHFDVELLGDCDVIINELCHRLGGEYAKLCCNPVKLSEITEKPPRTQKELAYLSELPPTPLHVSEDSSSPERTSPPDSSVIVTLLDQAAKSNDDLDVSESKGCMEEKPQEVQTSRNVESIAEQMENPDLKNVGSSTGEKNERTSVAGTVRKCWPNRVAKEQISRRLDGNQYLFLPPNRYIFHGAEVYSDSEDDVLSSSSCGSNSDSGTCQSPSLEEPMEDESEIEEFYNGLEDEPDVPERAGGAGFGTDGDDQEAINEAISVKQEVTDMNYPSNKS
Method: (§1) Cellular thermal shift assays were performed according to previously reported methods with some modifications.[66] Briefly, HCT116 cells were lysed with RIPA buffer and incubated with 20 μM YZL-51N or DMSO for 1 h on ice. Subsequently, cell lysates were divided into 70 μL aliquots and heated individually at different temperatures for 4 min following by cooling on ice. The heated lysates were centrifuged, and 50 μL supernatants were taken for SDS-PAGE and immunoblotting analysis with the indicated antibodies.

SIRT7 [3] = target: T1, SIRT7; experiment: as above; format: binding; details: 20 μM
Method: as §1

HCT116 cells [4] = experiment: Western blot of histone acetylation in treated cells; format: cell-based, human; details: HCT116, 0-40 μM, 8 h
Method: After drug treatment, the cells were lysed in RIPA lysis buffer. […] The membranes were then blocked with 5% skimmed milk in TBST and incubated overnight at 4°C with the primary antibodies followed by incubation with HRP-conjugated secondary antibodies. The protein bands were then detected using the ECL substrates and visualized with Tanon 5200SF Imaging System.

HCT116 cells [5] = tested on: HCT116 cells
Method: Cells were seeded into 96 well plates (4,000 cells/well). […] The cells were then washed and re-cultured in fresh medium for 48 h. […] Formazan were generated by the addition of 100 μL DMSO and shaking for 30 min. The absorbance of samples was measured at 570 nm using a microtiter plate reader (BioTek).

## COC(=O)/C(=C\C(=O)c1ccc(O)c(O)c1)c1ccc(O)c(O)c1 [YZL-51N]
SIRT7 [1]; 50 μM compound, 37°C, 90 min
  inhibition at 50 µM: 71.1%
SIRT7 [1]; 0.5 mM NAD+, 10 μM peptide, read-out: FDL assay SIRT7 inhibition IC50
  IC50: 12.7 µM
SIRT7 [2]
  Kd: 3.3 µM
SIRT1
  Effect on the melting curve: no obvious effect
SIRT7 [3]
  Shift in the melting curve: 5.2 °C
HCT116 cells [4]
  Level of H3K18ac: increased
HCT116 cells [5]; single agent 5 μM
  Cell proliferation (%, Mean ± SD): 94.8 ± 5.0%
HCT116 cells [5]; single agent 10 μM
  Cell proliferation (%, Mean ± SD): 86.9 ± 5.7%
HCT116 cells [5]; single agent 20 μM
  Cell proliferation (%, Mean ± SD): 76.4 ± 6.0%
HCT116 cells [5]; single agent 40 μM
  Cell proliferation (%, Mean ± SD): 42.8 ± 4.8%
HCT116 cells [5]; single agent 80 μM
  Cell proliferation (%, Mean ± SD): 29.9 ± 5.4%
HCT116 cells [5]; single agent 160 μM
  Cell proliferation (%, Mean ± SD): 17.7 ± 5.3%
